Assays:
hippocampal slices = experiment: spontaneous interictal-like bursts in hippocampal slices; format: cell-based, rat
[1] = tested on: acute rat hippocampal slice; experiment: stimulation-evoked afterdischarge, extracellular field recordings in hippocampal slice; format: cell-based
Description: Sprague-Dawley rats (male and female; 25 to 35 days old) were prepared as described in Aghajanian, A. K. and Rasmussen, K., Synapse 31:331, 1989; and Buckmaster, P. S., Strowbridge, B. W., Schwartzdroin, P. A., J. Neurophysiol. 70:1281, 1993. In most hippocampal slice experiments, simultaneous extracellular field electrode recordings were obtained from CA1 and CA3 areas. For stimulation-evoked afterdischarge (13 slices, 8 animals), the concentration of Mg^2+ in the bathing medium was reduced to 0.9 mM. A bipolar tungsten stimulating electrode was placed on the Schaffer collaterals to evoke synaptically driven field responses in CA1; stimuli consisted to 100 to 300-μs-duration pulses at an intensity of four times population-spike threshold. Afterdischarges were evoked by a 2-s train of such stimuli delivered at 60 Hz. […] In all treatments, perfusion with furosemide-containing medium was begun after a consistent level of bursting had been established.
FIG. 2A1 illustrates that two seconds of electrical stimulation at 60 Hz elicited afterdischarge activity. […] The color bar indicates increasing magnitude of activity-evoked optical changes from the bottom to the top of the bar. The region of maximum optical change (red, yellow) corresponds to the apical and basal dendritic regions of CA1 on either side of the stimulating electrode. FIGS. 2B1-2BC illustrate responses to electrical stimulation following 20 minutes of perfusion with medium containing 2.5 mM furosemide.

[2] = tested on: acute rat hippocampal slice; experiment: imaging of intrinsic optical signals in hippocampal slice; format: cell-based
Description: For imaging of intrinsic optical signals, the tissue was illuminated with a beam of white light (tungsten filament light and lens system; Dedotec USA, Lodi, N.J.) directed through the microscope condenser. The light was controlled and regulated (power supply: Lambda Electronics, Melville, N.Y.) to minimize fluctuations and filtered (695 nm long-pass) so that the slice was transilluminated with long wavelengths (red). Image frames were acquired with a charge-coupled device camera (Dage-MTI) at 30 Hz and were digitized at 8 bits with a spatial resolution of 512 by 480 pixels by means of an Imaging Technology Series 151 imaging system; gains and offsets of the camera-control box and the analog-to-digital board were adjusted to optimize the sensitivity of the system. […] To increase signal-to-noise ratio, an averaged image was composed from 16 individual image-frames, integrated over 0.5 s and averaged together. […] Pseudocolored images were calculated by subtracting the first control image from subsequently acquired images and assigned a color lookup table to the pixel values. For these images, usually a linear low-pass filter was used to remove high-frequency noise and a linear-histogram stretch was used to map the pixel values over the dynamic range of the system. All operations on these images were linear so that quantitative information was preserved. […]

[3] = following treatment with furosemide, FIG. 3E

[K+] [K^+]
spontaneous interictal-like bursts, average (hippocampal slices; 10 mM K+ in bathing medium, 6 slices, 4 animals): 81 bursts/min

NS(=O)(=O)c1cc(C(=O)O)c(NCc2ccco2)cc1Cl [furosemide]
electrical afterdischarge activity ([1]; 20 minutes of perfusion with medium containing 2.5 mM furosemide, 2 s stimulation at 60 Hz, FIG. 2B2): blocked
field response to the test pulse ([1]; 20 minutes of perfusion with medium containing 2.5 mM furosemide, FIG. 2B1): hyperexcitable field response (multiple population spikes)
reversibility of the effect after washout ([1]; following 45 minutes of perfusion with normal bathing medium, FIGS. 2C1-2C3): restoration of the initial response pattern
epileptiform activity during electrical stimulation [1, 3]: blocks
stimulation-evoked optical changes ([2]; 20 minutes of perfusion with medium containing 2.5 mM furosemide, FIG. 2BC): blocked
intrinsic optical signal (peak optical change during electrical stimulation) [2, 3]: blocks

Nc1ccncc1 [4-AP]
spontaneous interictal-like bursts, average (hippocampal slices; 200 to 300 μM 4-AP in bathing medium, 4 slices, 2 animals): 33 burst/min

— patent US6834238B1, “Method for identifying optical contrast enhancing agents” (Cytoscan Sciences LLC, priority 1998, dated 2004)
